Experimental findings from ChEMBL document CHEMBL1132783, “Dibasic inhibitors of human mast cell tryptase. Part 1: synthesis and optimization of a novel class of inhibitors” (Bioorg Med Chem Lett, 2000) are described below.

One experiment addresses Prothrombin (Homo sapiens, UniProt P00734). Description: Inhibitory potency against thrombin.
In a further experiment the target is Plasminogen (Homo sapiens, UniProt P00747). The experiment in a line: Inhibitory potency against plasmin.
In the next experiment the target is Serine protease 1 (Homo sapiens, UniProt P07477). The experiment in a line: Inhibitory potency against trypsin.
In another experiment the target is Tryptase beta-1 (Homo sapiens, UniProt Q15661). The experiment in a line: Inhibitory potency against tryptase.

pKi: −log10 of the molar value. A value given as a limit tells only on which side of the number the result lay.

Chain of Tryptase beta-1 (Q15661 whole entry): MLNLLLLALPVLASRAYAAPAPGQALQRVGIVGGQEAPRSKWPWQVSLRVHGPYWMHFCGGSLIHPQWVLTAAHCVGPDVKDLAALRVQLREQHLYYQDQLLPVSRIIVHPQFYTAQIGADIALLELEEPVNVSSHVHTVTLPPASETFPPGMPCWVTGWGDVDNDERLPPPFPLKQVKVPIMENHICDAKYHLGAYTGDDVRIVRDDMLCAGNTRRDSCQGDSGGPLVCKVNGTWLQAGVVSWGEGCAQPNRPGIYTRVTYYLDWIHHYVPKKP
Chain of Plasminogen (P00747 97-580 limits assumed): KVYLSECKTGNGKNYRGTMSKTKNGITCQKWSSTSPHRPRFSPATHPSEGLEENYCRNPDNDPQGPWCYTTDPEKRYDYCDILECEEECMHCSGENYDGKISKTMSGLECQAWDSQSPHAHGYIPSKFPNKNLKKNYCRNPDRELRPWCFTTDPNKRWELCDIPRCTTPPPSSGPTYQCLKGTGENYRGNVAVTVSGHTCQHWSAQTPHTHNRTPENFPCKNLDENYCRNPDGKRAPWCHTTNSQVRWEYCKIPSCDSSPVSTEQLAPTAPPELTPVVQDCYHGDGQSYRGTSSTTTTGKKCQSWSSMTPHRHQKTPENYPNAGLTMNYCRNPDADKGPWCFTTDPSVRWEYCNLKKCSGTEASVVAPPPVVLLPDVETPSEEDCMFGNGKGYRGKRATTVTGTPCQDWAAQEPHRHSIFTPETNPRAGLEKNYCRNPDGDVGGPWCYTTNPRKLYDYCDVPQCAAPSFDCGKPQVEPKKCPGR
Chain of Plasminogen (P00747 581-810 limits assumed): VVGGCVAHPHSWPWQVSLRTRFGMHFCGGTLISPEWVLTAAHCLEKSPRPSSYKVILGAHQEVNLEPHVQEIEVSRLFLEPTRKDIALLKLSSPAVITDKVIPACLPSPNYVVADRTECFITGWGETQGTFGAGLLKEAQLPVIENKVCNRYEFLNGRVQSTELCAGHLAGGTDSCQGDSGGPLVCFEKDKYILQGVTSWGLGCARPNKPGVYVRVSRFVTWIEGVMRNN
Chain of Serine protease 1 (P07477 whole entry): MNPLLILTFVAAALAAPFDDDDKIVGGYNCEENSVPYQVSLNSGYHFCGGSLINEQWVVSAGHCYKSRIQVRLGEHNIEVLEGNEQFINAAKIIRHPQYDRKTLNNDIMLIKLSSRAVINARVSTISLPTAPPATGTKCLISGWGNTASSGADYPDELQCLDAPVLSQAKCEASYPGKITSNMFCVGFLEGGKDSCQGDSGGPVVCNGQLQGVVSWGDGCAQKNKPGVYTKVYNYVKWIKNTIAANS

Regarding `NC(N)=Nc1ccc(CNC(=O)NCC(=O)O[C@H]2CCC[C@@H](OC(=O)CNC(=O)NCc3ccc(N=C(N)N)cc3)CCC2)cc1`, the negative-log Ki (pKi) was less than 3.00 on Prothrombin, less than 3.00 on Plasminogen, 4.11 on Serine protease 1 and 8.70 on Tryptase beta-1.

`NC(N)=Nc1ccc(CNC(=O)CNC(=O)OCc2ccc(COC(=O)NCC(=O)NCc3ccc(N=C(N)N)cc3)cc2)cc1`: the negative logarithm of the Ki (pKi) on Prothrombin was less than 3.00; at Plasminogen, less than 3.00; on Serine protease 1, 4.25; on Tryptase beta-1 it was 8.00.

As to `C[C@H](NC(=O)OCc1ccc(COC(=O)N[C@@H](C)C(=O)NCc2ccc(CN)cc2)cc1)C(=O)NCc1ccc(CN)cc1`, the pKi on Prothrombin was less than 3.00; on Plasminogen, 4.08; at Serine protease 1, 3.56; on Tryptase beta-1, 6.44.

Turning to `N=C(N)Nc1ccc(CNC(=O)CCCC(=O)NCc2ccc(CNC(=O)CCCC(=O)NCc3ccc(NC(=N)N)cc3)cc2)cc1`, the pKi was 3.31 at Prothrombin, less than 3.00 on Plasminogen, 4.15 on Serine protease 1 and 7.00 on Tryptase beta-1.

As for `N=C(N)Nc1ccc(CNC(=O)N2CCN(C(=O)O[C@H]3CCC[C@@H](OC(=O)N4CCN(C(=O)NCc5ccc(NC(=N)N)cc5)CC4)CCC3)CC2)cc1`, the negative logarithm of the Ki (pKi) is 3.36 on Prothrombin, 3.31 on Plasminogen and 4.41 at Serine protease 1.

Turning to `NCc1ccc(CNC(=O)CC(=O)NCc2ccc(CNC(=O)CC(=O)NCc3ccc(CN)cc3)cc2)cc1`, the negative-log Ki (pKi) at Prothrombin is less than 3.00; on Plasminogen it was less than 3.00; at Serine protease 1, 3.50; on Tryptase beta-1, 6.82.

Turning to `CN(Cc1ccc(CN)cc1)C(=O)CCC(=O)NCc1ccc(CNC(=O)CCC(=O)N(C)Cc2ccc(CN)cc2)cc1`, the negative logarithm of the Ki (pKi) at Prothrombin was less than 3.00; on Plasminogen, less than 3.00; on Serine protease 1, less than 3.00; at Tryptase beta-1 it was 5.70.

In the case of `NCc1ccc(CNC(=O)CCCC(=O)NCc2ccc(CNC(=O)CCCC(=O)NCc3ccc(CN)cc3)cc2)cc1`, the negative logarithm of the Ki (pKi) is less than 3.00 on Prothrombin, less than 3.00 at Plasminogen, 3.56 at Serine protease 1 and 8.05 at Tryptase beta-1.

For the molecule `N=C(N)Nc1ccc(CNC(=O)CC(=O)NCc2ccc(CNC(=O)CC(=O)NCc3ccc(NC(=N)N)cc3)cc2)cc1`, the negative logarithm of the Ki (pKi) on Prothrombin is less than 3.00; on Plasminogen, less than 3.00; on Serine protease 1 it was 4.14; on Tryptase beta-1 it was 6.17.

`CN(CC(=O)NCc1ccc(CN)cc1)C(=O)OCc1ccc(COC(=O)N(C)CC(=O)NCc2ccc(CN)cc2)cc1`: the pKi is less than 3.00 at Prothrombin, less than 3.64 on Plasminogen, 4.30 on Serine protease 1 and 8.30 at Tryptase beta-1.

For `N=C(N)Nc1ccc(CNC(=O)CCC(=O)NCc2ccc(CNC(=O)CCC(=O)NCc3ccc(NC(=N)N)cc3)cc2)cc1`, the pKi on Prothrombin was less than 3.00; at Plasminogen, less than 3.00; on Serine protease 1, 3.84; on Tryptase beta-1, 7.40.

In the case of `C[C@@H](NC(=O)OCc1ccc(COC(=O)N[C@H](C)C(=O)NCc2ccc(CN)cc2)cc1)C(=O)NCc1ccc(CN)cc1`, the negative logarithm of the Ki (pKi) on Prothrombin was less than 3.00; at Plasminogen it was less than 3.00; on Serine protease 1, 4.42; at Tryptase beta-1, 7.51.

Turning to `N=C(N)Nc1ccc(CNC(=O)CCNC(=O)OCc2ccc(COC(=O)NCCC(=O)NCc3ccc(NC(=N)N)cc3)cc2)cc1`, the negative logarithm of the Ki (pKi) at Prothrombin is less than 3.00; at Plasminogen, less than 3.00; on Serine protease 1 it was 4.14; at Tryptase beta-1, 7.05.

For `N=C(N)Nc1ccc(CNC(=O)N2CCN(C(=O)O[C@H]3CCC[C@@H](OC(=O)N4CCN(C(=O)NCc5ccccc5)CC4)CCC3)CC2)cc1`, the negative logarithm of the Ki (pKi) was less than 3.00 at Prothrombin, less than 3.00 at Plasminogen, 3.74 on Serine protease 1 and 4.82 at Tryptase beta-1.

Take `O=C(NCc1ccccc1)N1CCN(C(=O)O[C@H]2CCC[C@@H](OC(=O)N3CCN(C(=O)NCc4ccccc4)CC3)CCC2)CC1`: the negative-log Ki (pKi) is 4.85 at Prothrombin, less than 3.00 at Plasminogen, 4.36 on Serine protease 1 and 4.00 on Tryptase beta-1.

With `CN(Cc1ccc(CN(C)C(=O)CCC(=O)NCc2ccc(CN)cc2)cc1)C(=O)CCC(=O)NCc1ccc(CN)cc1`, the pKi is less than 3.00 at Prothrombin, 3.67 at Plasminogen, 3.79 on Serine protease 1 and 8.30 on Tryptase beta-1.

For `NCc1ccc(CNC(=O)CNC(=O)OCc2ccc(COC(=O)NCC(=O)NCc3ccc(CN)cc3)cc2)cc1`, the negative-log Ki (pKi) on Prothrombin was less than 3.00; on Plasminogen it was less than 3.00; on Tryptase beta-1, 9.22.

Take `NCc1ccc(CNC(=O)CCC(=O)NCc2ccc(CNC(=O)CCC(=O)NCc3ccc(CN)cc3)cc2)cc1`: the pKi is less than 3.00 at Prothrombin, 3.11 on Plasminogen, 3.63 on Serine protease 1 and 8.52 on Tryptase beta-1.
